From US9781933B2, “Tetrazolinone compound and use thereof” (Sumitomo Chemical Company, Limited, priority 2013, dated 2017)

Test system: wheat rust fungus (Puccinia recondita)
Assay: Comparative Test Example: wheat rust control at 50 ppm
Assay type: in vivo
Conditions: 50 ppm foliar spray; wheat (SHIROGANE); inoculated 5 days after spraying
Method: After spraying, the plant was air-dried so as to dry the dilution on the surface of the leaves. […] After the inoculation, the plant was placed at 23° C. for one day under dark and high humidity condition, and cultivated, under illumination at 20° C. for 8 days, and then the area of lesion was investigated.

SMILES | area of lesion relative to that on an untreated plant
Cc1cccc(-n2nnn(C)c2=O)c1COc1ccn(-c2ccc(F)cn2)n1 [compound 40] | ≤ 30%
Cn1nnn(-c2ccccc2COc2ccn(-c3ccc(F)cc3)n2)c1=O [control compound, 1-(2-{[1-(4-fluorophenyl)-1H-pyrazol-3-yl]oxymethyl}-phenyl)-4-methyl-1,4-dihydrotetrazol-5-one] | ≥ 70%
